In ChEMBL document CHEMBL1811859, “Second-generation sulfonamide inhibitors of D-glutamic acid-adding enzyme: activity optimisation with conformationally rigid analogues of D-glutamic acid” (Eur J Med Chem, 2011):
≈ marks a conversion by molar mass, not a printed value.

Experiments:
[1] = test system: Escherichia coli; experiment: Inhibition of Escherichia coli MurD ligase assessed as residual activity at 500 uM after 30 mins
[2] = test system: Enterococcus faecalis; experiment: Antimicrobial activity against Enterococcus faecalis ATCC 29212 by broth dilution method; type: functional
[3] = test system: Enterococcus faecium; experiment: Antimicrobial activity against Enterococcus faecium ATCC 19434 by broth dilution method; type: functional
[4] = test system: Streptococcus pneumoniae; experiment: Antimicrobial activity against Streptococcus pneumoniae ATCC 49619 by broth dilution method; type: functional
[5] = test system: Listeria monocytogenes; experiment: Antimicrobial activity against Listeria monocytogenes ATCC 14780 by broth dilution method; type: functional
[6] = test system: Staphylococcus aureus; experiment: Antimicrobial activity against methicillin-resistant Staphylococcus aureus ATCC 43300 by broth dilution method; type: functional
[7] = test system: Streptococcus pneumoniae; experiment: Antimicrobial activity against Streptococcus pneumoniae ATCC 33400 by broth dilution method; type: functional
[8] = test system: Enterococcus faecalis; experiment: Antimicrobial activity against Enterococcus faecalis ATCC 19433 by broth dilution method; type: functional
[9] = test system: Listeria innocua; experiment: Antimicrobial activity against Listeria innocua ATCC 33090 by broth dilution method; type: functional
[10] = test system: Bacillus subtilis; experiment: Antimicrobial activity against Bacillus subtilis ATCC 6633 by broth dilution method; type: functional
[11] = test system: Staphylococcus aureus; experiment: Antimicrobial activity against methicillin-resistant Staphylococcus aureus PL1 by broth dilution method; type: functional
[12] = test system: Escherichia coli; experiment: Inhibition of Escherichia coli MurD ligase assessed as residual activity at 1 mM after 30 mins
[13] = test system: Staphylococcus aureus; experiment: Antimicrobial activity against Staphylococcus aureus ATCC 25923 by broth dilution method; type: functional
[14] = test system: Staphylococcus epidermidis; experiment: Antimicrobial activity against Staphylococcus epidermidis ATCC 12228 by broth dilution method; type: functional
[15] = test system: Escherichia coli; experiment: Antimicrobial activity against Escherichia coli ATCC 8739 by broth dilution method; type: functional
[16] = Inhibition of Escherichia coli MurD ligase assessed as addition of D-[3H]glu to UDP-N-acetyl-muramoyl-L-alanine after 30 mins
[17] = test system: Streptococcus pneumoniae; experiment: Antimicrobial activity against Streptococcus pneumoniae D39 by broth dilution method; type: functional
[18] = test system: Proteus mirabilis; experiment: Antimicrobial activity against Proteus mirabilis ATCC 29936 by broth dilution method; type: functional
[19] = test system: Klebsiella pneumoniae; experiment: Antimicrobial activity against Klebsiella pneumoniae ATCC 13883 by broth dilution method; type: functional
[20] = test system: Enterococcus hirae; experiment: Antimicrobial activity against Enterococcus hirae ATCC 9790 by broth dilution method; type: functional
[21] = test system: Micrococcus luteus; experiment: Antimicrobial activity against Micrococcus luteus ATCC 9314 by broth dilution method; type: functional
[22] = test system: Pseudomonas aeruginosa; experiment: Antimicrobial activity against Pseudomonas aeruginosa ATCC 27853 by broth dilution method; type: functional
[23] = test system: Citrobacter freundii; experiment: Antimicrobial activity against Citrobacter freundii ATCC 8090 by broth dilution method; type: functional

Compound	MIC [2]	MIC [3]	MIC [4]	MIC [5]	MIC [6]	MIC [7]	MIC [8]	MIC [9]	MIC [10]	MIC [11]	MIC [13]	MIC [14]	MIC [15]	MIC [17]	MIC [18]	MIC [19]	MIC [20]	MIC [21]	MIC [22]	MIC [23]	also measured
N#Cc1ccc(COc2ccc3cc(S(=O)(=O)N4CCC(C(=O)O)CC4)ccc3c2)c(F)c1																					Activity [1]: 94%
N#Cc1ccc(COc2ccc3cc(S(=O)(=O)Nc4ccc(C(=O)O)cc4C(=O)O)ccc3c2)c(F)c1	> 512 µg/mL	> 512 µg/mL	> 512 µg/mL	> 512 µg/mL	> 512 µg/mL	> 512 µg/mL	> 512 µg/mL	> 512 µg/mL	> 512 µg/mL	> 512 µg/mL	> 512 µg/mL	> 512 µg/mL	> 512 µg/mL	> 512 µg/mL	> 512 µg/mL	> 512 µg/mL	> 512 µg/mL	> 512 µg/mL	> 512 µg/mL	> 512 µg/mL	Activity [12]: 0.79%; IC50 [16]: 8.4 µM; Ki [16]: 5.8 µM
N#Cc1ccc(COc2ccc3cc(S(=O)(=O)Nc4cc(C(=O)O)ccc4C(=O)O)ccc3c2)c(F)c1	> 512 µg/mL	> 512 µg/mL	> 512 µg/mL	> 512 µg/mL	> 512 µg/mL	> 512 µg/mL	> 512 µg/mL	> 512 µg/mL	> 512 µg/mL	> 512 µg/mL	> 512 µg/mL	> 512 µg/mL	> 512 µg/mL	> 512 µg/mL	> 512 µg/mL	> 512 µg/mL	> 512 µg/mL	> 512 µg/mL	> 512 µg/mL	> 512 µg/mL	Activity [12]: 2%; IC50 [16]: 38 µM; Ki [16]: 26 µM
CCCCOc1ccc2cc(S(=O)(=O)N3CCC(C(=O)O)CC3)ccc2c1																					Activity [1]: 97%
CCCCOc1ccc2cc(S(=O)(=O)Nc3ccc(O)cc3C(=O)O)ccc2c1	256 µg/mL (≈ 616 µM)	256 µg/mL (≈ 616 µM)	64 µg/mL (≈ 154 µM)	> 512 µg/mL	> 512 µg/mL	32 µg/mL (≈ 77 µM)	> 512 µg/mL	> 512 µg/mL	> 512 µg/mL	> 512 µg/mL	> 512 µg/mL	> 512 µg/mL	> 512 µg/mL	64 µg/mL (≈ 154 µM)	> 512 µg/mL	> 512 µg/mL	256 µg/mL (≈ 616 µM)	256 µg/mL (≈ 616 µM)	> 512 µg/mL	> 512 µg/mL	Activity [1]: 76%
N#Cc1ccc(COc2ccc3cc(S(=O)(=O)N[C@H](CCC(=O)O)C(=O)O)ccc3c2)c(F)c1																					Ki [16]: 58 µM
CCCCOc1ccc2cc(S(=O)(=O)N[C@@H]3CCCC[C@H]3C(=O)O)ccc2c1	256 µg/mL (≈ 631 µM)	256 µg/mL (≈ 631 µM)	64 µg/mL (≈ 158 µM)	32 µg/mL (≈ 78.9 µM)	256 µg/mL (≈ 631 µM)	64 µg/mL (≈ 158 µM)	512 µg/mL (≈ 1260 µM)	32 µg/mL (≈ 78.9 µM)	64 µg/mL (≈ 158 µM)	256 µg/mL (≈ 631 µM)	256 µg/mL (≈ 631 µM)	256 µg/mL (≈ 631 µM)	> 512 µg/mL	64 µg/mL (≈ 158 µM)	> 512 µg/mL	> 512 µg/mL	64 µg/mL (≈ 158 µM)	> 512 µg/mL	> 512 µg/mL	> 512 µg/mL	Activity [12]: 100%
CCCCOc1ccc2cc(S(=O)(=O)N[C@H](CCC(=O)O)C(=O)O)ccc2c1																					IC50 [16]: 280 µM; Ki [16]: 192 µM
CCCCOc1ccc2cc(S(=O)(=O)Nc3ccc(C(=O)O)cc3C(=O)O)ccc2c1	> 512 µg/mL	> 512 µg/mL	> 512 µg/mL	> 512 µg/mL	> 512 µg/mL	> 512 µg/mL	> 512 µg/mL	> 512 µg/mL	> 512 µg/mL	> 512 µg/mL	> 512 µg/mL	> 512 µg/mL	> 512 µg/mL	> 512 µg/mL	> 512 µg/mL	> 512 µg/mL	> 512 µg/mL	> 512 µg/mL	> 512 µg/mL	> 512 µg/mL	Activity [12]: 8%; IC50 [16]: 127 µM; Ki [16]: 87 µM
N#Cc1ccc(COc2ccc3cc(S(=O)(=O)Nc4cc(C(=O)O)cc(C(=O)O)c4)ccc3c2)c(F)c1	> 512 µg/mL	> 512 µg/mL	> 512 µg/mL	> 512 µg/mL	> 512 µg/mL	> 512 µg/mL	> 512 µg/mL	> 512 µg/mL	> 512 µg/mL	> 512 µg/mL	> 512 µg/mL	> 512 µg/mL	> 512 µg/mL	> 512 µg/mL	> 512 µg/mL	> 512 µg/mL	> 512 µg/mL	> 512 µg/mL	> 512 µg/mL	> 512 µg/mL	Activity [12]: 2%; IC50 [16]: 50 µM; Ki [16]: 34 µM
CCCCOc1ccc2cc(S(=O)(=O)NC3CCC(C(=O)O)CC3C(=O)O)ccc2c1 (racemic)	256 µg/mL (≈ 569 µM)	128 µg/mL (≈ 285 µM)	64 µg/mL (≈ 142 µM)	32 µg/mL (≈ 71.2 µM)	128 µg/mL (≈ 285 µM)	64 µg/mL (≈ 142 µM)	128 µg/mL (≈ 285 µM)	32 µg/mL (≈ 71.2 µM)	64 µg/mL (≈ 142 µM)	32 µg/mL (≈ 71.2 µM)	128 µg/mL (≈ 285 µM)	128 µg/mL (≈ 285 µM)	> 512 µg/mL	64 µg/mL (≈ 142 µM)	> 512 µg/mL	> 512 µg/mL	32 µg/mL (≈ 71.2 µM)	> 512 µg/mL	> 512 µg/mL	> 512 µg/mL	Activity [12]: 89%
CCCCOc1ccc2cc(S(=O)(=O)N[C@H]3CCCC[C@H]3C(=O)O)ccc2c1	256 µg/mL (≈ 631 µM)	256 µg/mL (≈ 631 µM)	64 µg/mL (≈ 158 µM)	32 µg/mL (≈ 78.9 µM)	128 µg/mL (≈ 316 µM)	64 µg/mL (≈ 158 µM)	512 µg/mL (≈ 1260 µM)	32 µg/mL (≈ 78.9 µM)	64 µg/mL (≈ 158 µM)	128 µg/mL (≈ 316 µM)	256 µg/mL (≈ 631 µM)	256 µg/mL (≈ 631 µM)	> 512 µg/mL	64 µg/mL (≈ 158 µM)	> 512 µg/mL	> 512 µg/mL	64 µg/mL (≈ 158 µM)	> 512 µg/mL	> 512 µg/mL	> 512 µg/mL	Activity [12]: 93%
N#Cc1ccc(COc2ccc3cc(S(=O)(=O)N[C@H]4CCCC[C@H]4C(=O)O)ccc3c2)c(F)c1	> 512 µg/mL	256 µg/mL (≈ 531 µM)	> 512 µg/mL	> 512 µg/mL	256 µg/mL (≈ 531 µM)	> 512 µg/mL	> 512 µg/mL	> 512 µg/mL	> 512 µg/mL	256 µg/mL (≈ 531 µM)	256 µg/mL (≈ 531 µM)	256 µg/mL (≈ 531 µM)	> 512 µg/mL	> 512 µg/mL	> 512 µg/mL	> 512 µg/mL	> 512 µg/mL	> 512 µg/mL	> 512 µg/mL	> 512 µg/mL	Activity [12]: 45%
N#Cc1ccc(COc2ccc3cc(S(=O)(=O)NC4CCC(C(=O)O)CC4C(=O)O)ccc3c2)c(F)c1 (racemic)	> 512 µg/mL	> 512 µg/mL	> 512 µg/mL	> 512 µg/mL	> 512 µg/mL	> 512 µg/mL	> 512 µg/mL	> 512 µg/mL	> 512 µg/mL	> 512 µg/mL	> 512 µg/mL	> 512 µg/mL	> 512 µg/mL	> 512 µg/mL	> 512 µg/mL	> 512 µg/mL	> 512 µg/mL	> 512 µg/mL	> 512 µg/mL	> 512 µg/mL	Activity [12]: 14%
N#Cc1ccc(COc2ccc3cc(S(=O)(=O)N[C@@H]4CCCC[C@H]4C(=O)O)ccc3c2)c(F)c1	> 512 µg/mL	> 512 µg/mL	> 512 µg/mL	> 512 µg/mL	> 512 µg/mL	> 512 µg/mL	> 512 µg/mL	> 512 µg/mL	> 512 µg/mL	> 512 µg/mL	> 512 µg/mL	> 512 µg/mL	> 512 µg/mL	> 512 µg/mL	> 512 µg/mL	> 512 µg/mL	> 512 µg/mL	> 512 µg/mL	> 512 µg/mL	> 512 µg/mL	Activity [12]: 88%
